For the assay, the target named is T1, full length active recombinant SYK enzyme (Homo sapiens, UniProt P43405).
T1 construct: full length active recombinant SYK enzyme (Millipore, Calif.); purchased Millipore
The assay is described as follows: Inhibition of Syk tyrosine phosphorylation activity (LANCE TR-FRET kinase assay). The assay is classed as biochemical. From the text:
This example illustrates methods for evaluating the compounds of the invention, along with results obtained for such assays. The in vitro and in vivo human Syk activities of the inventive compounds can be determined by various procedures known in the art, such as a test for their ability to inhibit the activity of human plasma Syk. […] The IC50 value is the concentration (in nM) of the compound required to provide 50% inhibition of human Syk proteolytic activity.
Potency of candidate molecules for inhibiting Syk tyrosine phosphorylation activity is assessed by measuring the ability of a test compound to inhibit Syk-mediated tyrosine phosphorylation of a Syk-specific substrate.
SYK tyrosine phosphorylation activity is measured using the LANCE™ Technology developed by Perkin Elmer Life and Analytical Sciences (Boston, Mass.). LANCE™ refers to homogeneous time resolved fluorometry applications using techniques such as time-resolved fluorescence resonance energy transfer assay (TR-FRET) (see generally for procedures in Perkin Elmer Application Note—How to Optimize a Tyrosine Kinase Assay Using Time Resolved Fluorescence-Based LANCE Detection, wwww.perkinelmer.com/lifesciences). The assay principle involves detection of a phosphorylated substrate using energy transfer from a phosphospecific europium-labeled antibody to streptavidin-allophycocyanin as an acceptor.
To test the ability of candidate molecules to inhibit SYK tyrosine phosphorylation activity, molecules are reconstituted in 30% DMSO and serially diluted 1:3 with the final dilution containing DMSO in the absence of the candidate molecule. The final DMSO concentration in the assay is 3%. Kinase assays are performed as a two part reaction. The first reaction is a kinase reaction and which comprises of a candidate molecule, full length active recombinant SYK enzyme (Millipore, Calif.) and biotin-labeled SYK-specific substrate biotin-[…]-OH. The second reaction involves termination of the kinase reaction and the simultaneous addition of the detection reagents-europium-labeled anti-phosphotyrosine reagent (Eu-W1024-PY100, Perkin Elmer, Boston, Mass.) and Streptavidin-Allophycocyanin detection reagent (SA-APC, Prozyme, Calif.). The kinase reaction is performed in a black U-bottom 96-well microtitre plate. The final reaction volume is 50 μL and contains a final concentration of 1 nM active SYK enzyme, 550 nM SYK-substrate, and 100 μM ATP diluted in a buffer containing 50 mM Tris pH 7.5, 5 mM MgCl2, and 1 mM DTT. The reaction is allowed to proceed for 1 hour at room temperature. The quench buffer contains 100 mM Tris pH 7.5, 300 mM NaCl2, 20 mM EDTA, 0.02% Brij35, and 0.5% BSA. The detection reagents are added to the reaction mixture at the following dilutions-1:500 for Eu-W1024-PY100 and 1:250 for SA-APC. The kinase reaction is terminated by the addition of 50 μL quench buffer containing the detection reagents. The detection is allowed to proceed for 1 hr at room temperature. Detection of the phosphorlated substrate in the absence and presence of inhibitors is measured in the TR-FRET instrument, Analyst HT (Molecular Probes, Sunnyvale, Calif.) and the condition for measurements are set up using CriterionHost Release 2.0 (Molecular Probes, Sunnyvale, Calif.). The settings used are a follows: excitation 360 nm, emission 665-7.5 nm, beam splitter 350 nm 50/50, flash 100 pulses, delay 60 us, integration 400 us, z-height 2 mm. Inhibition of SYK-tyrosine kinase activity is calculated as the maximum response observed in the presence of inhibitor, compared to that in the absence of inhibitor. IC50s were derived by non-linear regression analysis.
In general terms: In TR-FRET formats the signal depends on donor and acceptor labels being close together.
With `CC[C@@H](Nc1nc(Nc2ccc3c(ccc[n+]3[O-])c2)c(C(N)=O)c(OC)n1)C(N)=O` [Example 17, (R)-6-(2-(1-amino-1-oxobutan-2-ylamino)-5-carbamoyl-6-methoxypyrimidin-4-ylamino)quinoline 1-oxide], the IC50 lay within 10 to 100 nM.

On to `CC(C)C[C@@H](Nc1nc(Nc2cccc(-c3ccccn3)c2)c(C(N)=O)c(=O)[nH]1)C(N)=O` [Example 40, (R)-2-(1-amino-4-methyl-1-oxopentan-2-ylamino)-6-oxo-4-(3-(pyridin-2-yl)phenylamino)-1,6-dihydropyrimidine-5-carboxamide], for which the IC50 was in the range of 1 to 10 nM.

Take `CC(C)C[C@@H](Nc1nc(Nc2ccc3[nH]ncc3c2)c(C(N)=O)c(=O)[nH]1)C(N)=O` [Example 25, (R)-4-(1H-indazol-5-ylamino)-2-(1-amino-4-methyl-1-oxopentan-2-ylamino)-6-oxo-1,6-dihydropyrimidine-5-carboxamide]: the IC50 is less than 1 nM.

In the case of `CNC(=O)[C@@H](CC(C)C)Nc1nc(Nc2cccc(-n3cccn3)c2)c(C(N)=O)c(=O)[nH]1` [Example 104, (R)-4-(3-(1H-pyrazol-1-yl)phenylamino)-2-(4-methyl-1-(methylamino)-1-oxopentan-2-ylamino)-6-oxo-1,6-dihydropyrimidine-5-carboxamide], the IC50 was more than 1000 nM.

As for `CC(C)C[C@@H](Nc1nc(Nc2cccc(OC(F)F)c2)c(C(N)=O)c(=O)[nH]1)C(N)=O` [Example 87, (R)-2-(1-amino-4-methyl-1-oxopentan-2-ylamino)-4-(3-(difluoromethoxy)phenylamino)-6-oxo-1,6-dihydropyrimidine-5-carboxamide], the IC50 is 1 to 10 nM.

For the compound `CNC(=O)[C@@H](CC(C)C)Nc1nc(Nc2ccc3ncsc3c2)c(C(N)=O)c(=O)[nH]1` [Example 103, (R)-4-(benzo[d]thiazol-6-ylamino)-2-(4-methyl-1-(methylamino)-1-oxopentan-2-ylamino)-6-oxo-1,6-dihydropyrimidine-5-carboxamide], the IC50 was in the range of 10 to 100 nM.

`CCNc1nc(Nc2cccc(C)c2)c(C(N)=O)c(OCCO)n1` [Example 75, 4-(m-toluidino)-2-(ethylamino)-6-(2-hydroxyethoxy)pyrimidine-5-carboxamide]: the IC50 is more than 1000 nM.

For `NC(=O)c1c(Nc2cccc(-n3nccn3)c2)nc(N[C@@H]2CCCC[C@@H]2N)[nH]c1=O` [Example 5], the IC50 was 1 to 10 nM.

On to `COc1nc(N[C@H](C)C(N)=O)nc(Nc2cc(C)cc(C)c2)c1C(N)=O` [Example 66, (R)-2-(1-amino-1-oxopropan-2-ylamino)-4-(3,5-dimethylphenylamino)-6-methoxypyrimidine-5-carboxamide], for which the IC50 is 100 to 1000 nM.

Take `COc1ccc(Nc2nc(N[C@H](CC(C)C)C(N)=O)[nH]c(=O)c2C(N)=O)cc1OC` [Example 83, (R)-2-(1-amino-4-methyl-1-oxopentan-2-ylamino)-4-(3,4-dimethoxyphenylamino)-6-oxo-1,6-dihydropyrimidine-5-carboxamide]: the IC50 was less than 1 nM.

Regarding `CC(C)C[C@@H](Nc1nc(Nc2cccc(OC(F)(F)F)c2)c(C(N)=O)c(=O)[nH]1)C(N)=O` [Example 101, (R)-2-(1-amino-4-methyl-1-oxopentan-2-ylamino)-4-(3-(trifluoromethoxy)phenylamino)-6-oxo-1,6-dihydropyrimidine-5-carboxamide], the IC50 lay within 1 to 10 nM.

Turning to `CC(C)[C@@H](Nc1nc(Nc2cccc(-n3nccn3)c2)c(C(N)=O)c(=O)[nH]1)C(N)=O` [Example 6, (R)-4-(3-(2H-1,2,3-triazol-2-yl)phenylamino)-2-(1-amino-3-methyl-1-oxobutan-2-ylamino)-6-oxo-1,6-dihydropyrimidine-5-carboxamide], the 50% inhibitory concentration (IC50) is 1 to 10 nM.

`CC(=O)N(C)c1ccc(Nc2nc(NC3CC3)c(C(N)=O)c(=O)[nH]2)cc1` [Example 58, 4-(cyclopropylamino)-2-(4-(N-methylacetamido)phenylamino)-6-oxo-1,6-dihydropyrimidine-5-carboxamide]: the IC50 was more than 1000 nM.

With `CNCCNc1nc(Nc2cccc(-n3nccn3)c2)c(C(N)=O)c(=O)[nH]1` [Example 23, 4-(3-(2H-1,2,3-triazol-2-yl)phenylamino)-2-(2-(methylamino)ethylamino)-6-oxo-1,6-dihydropyrimidine-5-carboxamide], the IC50 fell in the range of 10 to 100 nM.

For `CC[C@@H](Nc1nc(Nc2cccc(-c3ccccn3)c2)c(C(N)=O)c(=O)[nH]1)C(N)=O` [Example 41, (R)-2-(1-amino-1-oxobutan-2-ylamino)-6-oxo-4-(3-(pyridin-2-yl)phenylamino)-1,6-dihydropyrimidine-5-carboxamide], the IC50 is 1 to 10 nM.

Regarding `Cc1cc(C)cc(Nc2nc(Nc3ccc(S(N)(=O)=O)cc3)[nH]c(=O)c2C(N)=O)c1` [Example 61, 4-(4-(3,5-dimethylphenylamino)-5-carboxamide-6-oxo-1,6-dihydropyrimidin-2-ylamino)benzenesulfonamide], the IC50 fell in the range of 100 to 1000 nM.

In the case of `CC(C)C[C@@H](Nc1nc(Nc2ccc3c(c2)OCO3)c(C(N)=O)c(=O)[nH]1)C(N)=O` [Example 79, (R)-2-(1-amino-4-methyl-1-oxopentan-2-ylamino)-4-(benzo[d][1,3]-dioxol-5-ylamino)-6-oxo-1,6-dihydropyrimidine-5-carboxamide], the IC50 was less than 1 nM.

For the compound `CC(C)[C@@H](Nc1nc(Nc2ccc3[nH]ncc3c2)c(C(N)=O)c(=O)[nH]1)C(N)=O` [Example 26, (R)-4-(1H-indazol-5-ylamino)-2-(1-amino-3-methyl-1-oxobutan-2-ylamino)-6-oxo-1,6-dihydropyrimidine-5-carboxamide], the concentration for half-maximal inhibition (IC50) is less than 1 nM.

Consider `COc1nc(N[C@@H](C(N)=O)c2ccccc2)nc(Nc2cc(C)cc(C)c2)c1C(N)=O` [Example 72, (R)-2-(2-amino-2-oxo-1-phenylethylamino)-4-(3,5-dimethylphenylamino)-6-methoxypyrimidine-5-carboxamide], for which the IC50 is 100 to 1000 nM.

As for `CCNc1nc(Nc2cccc(C)c2)c(C(N)=O)c(OCCCN)n1` [Example 52, 4-(m-toluidino)-6-(3-aminopropoxy)-2-(ethylamino)pyrimidine-5-carboxamide], the IC50 is more than 1000 nM.

For `COc1nc(N[C@H](CC(C)C)C(N)=O)nc(Nc2cc(C)cc(C)c2)c1C(N)=O` [Example 67, (R)-2-(1-amino-4-methyl-1-oxopentan-2-ylamino)-4-(3,5-dimethylphenylamino)-6-methoxypyrimidine-5-carboxamide], the IC50 is 100 to 1000 nM.

As for `COc1ccc(Nc2nc(N[C@H](CC(C)C)C(N)=O)[nH]c(=O)c2C(N)=O)cn1` [Example 110], the IC50 was 1 to 10 nM.

For the compound `CC(=O)N1CCN(c2ccc(Nc3nc(O)c(C(N)=O)c(Nc4cccc(C)c4)n3)cc2)CC1` [Example 64, 4-(m-toluidino)-2-(4-(4-acetylpiperazin-1-yl)phenylamino)-6-hydroxypyrimidine-5-carboxamide], the IC50 is more than 1000 nM.

With `NC(=O)c1c(NC2CCC2)nc(Nc2ccc(S(N)(=O)=O)cc2)[nH]c1=O` [Example 45, 4-(cyclobutylamino)-6-oxo-2-(4-sulfamoylphenylamino)-1,6-dihydropyrimidine-5-carboxamide], the IC50 is more than 1000 nM.

Regarding `COc1nc(Nc2ccc(N3CCN(C(C)=O)CC3)cc2)nc(NC2CC2)c1C(N)=O` [Example 69, 2-(4-(4-acetylpiperazin-1-yl)phenylamino)-4-(cyclopropylamino)-6-methoxypyrimidine-5-carboxamide], the 50% inhibitory concentration (IC50) is more than 1000 nM.

In the case of `Cc1cc(C)cc(Nc2nc(NC3CC3)[nH]c(=O)c2C(N)=O)c1` [Example 60, 2-(cyclopropylamino)-4-(3,5-dimethylphenylamino)-6-oxo-1,6-dihydropyrimidine-5-carboxamide], the 50% inhibitory concentration (IC50) was more than 1000 nM.

For the compound `CC[C@@H](Nc1nc(Nc2ccc3cn[nH]c3c2)c(C(N)=O)c(=O)[nH]1)C(N)=O` [Example 36], the IC50 was less than 1 nM.

What is called IC50 is the midpoint of a concentration-inhibition curve.
